According to paper PMC10051969, “Exploring Probenecid Derived 1,3,4-Oxadiazole-Phthalimide Hybrid as α-Amylase Inhibitor: Synthesis, Structural Investigation, and Molecular Modeling” (Pharmaceuticals, 2023):
Values after ≈ are worked out from the molar mass of the structure shown.

Biological target: α-amylase
Assay: DNS colorimetric α-amylase assay, starch substrate, absorbance at […] nm
Type: biochemical

Q: Which “IC50 Value” does the source give for `CCCN(CCC)S(=O)(=O)c1ccc(-c2nnc(SCN3C(=O)c4ccccc4C3=O)o2)cc1` [PESMP, 4-(5-((1,3-Dioxoisoindolin-2-yl)methylthio)-1,3,4-oxadiazol-2-yl)-N,N-dipropylbenzene-sulfonamide] here?
A: The value was 10.60 ± 0.16 µg/mL (≈ 21.2 µM).
